“And” between values parts separate entries of the source, which are not always exact repeats. Equal values may be shown once. Toxic doses and inconclusive results are not listed.
System: BDF1 mice, B16 melanoma ip, median survival T/C
Experiment: NCI In Vivo Anticancer Drug Screen. Data for tumor model B16 Melanoma (intraperitoneal) in B6D2F1 (BDF1) mice
Conditions: endpoint: median survival time, higher = longer survival
How it was run: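 Antitumor activity is assessed in mice bearing a transplanted tumor, with survival or tumor size compared against vehicle-dosed controls and expressed as T/C.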

[1] = dose: 6.25 mg/kg/injection, schedule: Q01DX009 (ip), vehicle: saline with Tween-80
[2] = dose: 12.5 mg/kg/injection, schedule: Q01DX009 (ip), vehicle: saline with Tween-80
[3] = dose: 25.0 mg/kg/injection, schedule: Q01DX009 (ip), vehicle: saline with Tween-80
[4] = dose: 200.0 mg/kg/injection, schedule: Q01DX009 (ip), vehicle: saline
[5] = dose: 400.0 mg/kg/injection, schedule: Q01DX009 (ip), vehicle: saline
[6] = dose: 100.0 mg/kg/injection, schedule: Q01DX009 (ip), vehicle: water
[7] = dose: 12.5 mg/kg/injection, schedule: Q01DX009 (ip), vehicle: saline
[8] = dose: 25.0 mg/kg/injection, schedule: Q01DX009 (ip), vehicle: saline
[9] = dose: 50.0 mg/kg/injection, schedule: Q01DX009 (ip), vehicle: saline
[10] = dose: 100.0 mg/kg/injection, schedule: Q01DX009 (ip), vehicle: saline
[11] = dose: 1.56 mg/kg/injection, schedule: Q01DX009 (ip), vehicle: water
[12] = dose: 3.13 mg/kg/injection, schedule: Q01DX009 (ip), vehicle: water
[13] = dose: 6.25 mg/kg/injection, schedule: Q01DX009 (ip), vehicle: water
[14] = dose: 50.0 mg/kg/injection, schedule: Q01DX009 (ip), vehicle: Klucel (hydroxypropylcellulose) (HPC)
[15] = dose: 3.12 mg/kg/injection, schedule: Q01DX009 (ip), vehicle: water
[16] = dose: 12.5 mg/kg/injection, schedule: Q01DX009 (ip), vehicle: water
[17] = dose: 100.0 mg/kg/injection, schedule: Q01DX009 (ip), vehicle: Klucel (hydroxypropylcellulose) (HPC)
[18] = dose: 200.0 mg/kg/injection, schedule: Q01DX009 (ip), vehicle: Klucel (hydroxypropylcellulose) (HPC)
[19] = dose: 50.0 mg/kg/injection, schedule: Q01DX009 (ip), vehicle: saline with Tween-80

## C#CC(OC(=O)NC1CCCCC1)(c1ccccc1)c1ccccc1
[1]
  T/C: 105 % of control
[2]
  T/C: 100 % of control
[3]
  T/C: 113 % of control

## O=C1NC(=O)c2ccccc21
[4]
  T/C: 97 % of control
[5]
  T/C: 95 % of control

## NC(=O)c1csc(C2OC(CO)C(O)C2O)n1 (stereo not given)
dose: 25.0 mg/kg/injection, schedule: Q01DX009 (ip), vehicle: water
  T/C: 103 % of control
dose: 50.0 mg/kg/injection, schedule: Q01DX009 (ip), vehicle: water
  T/C: 99 % of control
[6]
  T/C: 104 % of control
dose: 200.0 mg/kg/injection, schedule: Q01DX009 (ip), vehicle: water
  T/C: 111 % of control
dose: 400.0 mg/kg/injection, schedule: Q01DX009 (ip), vehicle: water
  T/C: 110 % of control
dose: 800.0 mg/kg/injection, schedule: Q01DX009 (ip), vehicle: water
  T/C: 99 % of control

## COc1ccc2c(=O)cc(-c3ccccc3)[nH]c2c1
[7]
  T/C: 114 % of control
[8]
  T/C: 117 % of control
[9]
  T/C: 120 % of control

## CC(=O)C(N)CCC(=O)O (stereo not given)
[9]
  T/C: 105 % of control
[10]
  T/C: 113 % of control
[4]
  T/C: 97 % of control

## Cn1c2nc3ccccc3c-2nc2ccccc21
[11]
  T/C: 95 % of control
[12]
  T/C: 96 % of control
dose: 6.25 mg/kg/injection, schedule: Q01DX009 (ip), vehicle: other
  T/C: 105 % of control
[13]
  T/C: 90 % of control
dose: 12.5 mg/kg/injection, schedule: Q01DX009 (ip), vehicle: other
  T/C: 104 % of control
dose: 25.0 mg/kg/injection, schedule: Q01DX009 (ip), vehicle: other
  T/C: 97 % of control
[14]
  T/C: 87 % of control
dose: 50.0 mg/kg/injection, schedule: Q01DX009 (ip), vehicle: other
  T/C: 92 % of control

## CNCC(O)c1ccc(O)cc1 (stereo not given)
[8]
  T/C: 110 % of control
[9]
  T/C: 115 % of control and 121 % of control
[10]
  T/C: 110 % of control and 121 % of control
dose: 150.0 mg/kg/injection, schedule: Q01DX009 (ip), vehicle: saline
  T/C: 91 % of control
[4]
  T/C: 106 % of control and 123 % of control
dose: 300.0 mg/kg/injection, schedule: Q01DX009 (ip), vehicle: saline
  T/C: 94 % of control
[5]
  T/C: 110 % of control
dose: 600.0 mg/kg/injection, schedule: Q01DX009 (ip), vehicle: saline
  T/C: 89 % of control

## Nc1n[n+](-c2ccccc2)no1
[11]
  T/C: 102 % of control
[15]
  T/C: 89 % of control
[12]
  T/C: 96 % of control
[13]
  T/C: 102 % of control and 105 % of control
[16]
  T/C: 119 % of control

## Cc1cccc(CN2CCN(C(c3ccccc3)c3ccc(Cl)cc3)CC2)c1 (stereo not given)
dose: 3.12 mg/kg/injection, schedule: Q04DX003 (ip), vehicle: Klucel (hydroxypropylcellulose) (HPC)
  T/C: 97 % of control
dose: 6.25 mg/kg/injection, schedule: Q04DX003 (ip), vehicle: Klucel (hydroxypropylcellulose) (HPC)
  T/C: 101 % of control
dose: 12.5 mg/kg/injection, schedule: Q01DX009 (ip), vehicle: Klucel (hydroxypropylcellulose) (HPC)
  T/C: 86 % of control
dose: 12.5 mg/kg/injection, schedule: Q04DX003 (ip), vehicle: Klucel (hydroxypropylcellulose) (HPC)
  T/C: 96 % of control
dose: 25.0 mg/kg/injection, schedule: Q01DX009 (ip), vehicle: Klucel (hydroxypropylcellulose) (HPC)
  T/C: 86 % of control
dose: 25.0 mg/kg/injection, schedule: Q04DX003 (ip), vehicle: Klucel (hydroxypropylcellulose) (HPC)
  T/C: 96 % of control
[14]
  T/C: 86 % of control
dose: 50.0 mg/kg/injection, schedule: Q04DX003 (ip), vehicle: Klucel (hydroxypropylcellulose) (HPC)
  T/C: 89 % of control
dose: 100.0 mg/kg/injection, schedule: Q04DX003 (ip), vehicle: Klucel (hydroxypropylcellulose) (HPC)
  T/C: 88 % of control

## O=C1C(Cl)=C(N=Nc2c(Cl)c(O)c3ccccc3c2O)C(=O)c2ccccc21
[7]
  T/C: 89 % of control
[8]
  T/C: 86 % of control

## Cc1cc(Cl)ccc1NC(=O)c1ccccc1Cl
[17]
  T/C: 114 % of control
[18]
  T/C: 122 % of control
dose: 400.0 mg/kg/injection, schedule: Q01DX009 (ip), vehicle: Klucel (hydroxypropylcellulose) (HPC)
  T/C: 110 % of control

## CCOC(=O)N1CCN(CCCCCOc2ccccc2C2CCCCC2)CC1
[19]
  T/C: 103 % of control

## Cc1ccc(C)n1-c1ccccc1
dose: 100.0 mg/kg/injection, schedule: Q01DX009 (ip), vehicle: saline + alcohol
  T/C: 101 % of control
dose: 200.0 mg/kg/injection, schedule: Q01DX009 (ip), vehicle: saline + alcohol
  T/C: 99 % of control

## O=S(=O)(Nc1cccc(C(F)(F)F)c1)c1ccccc1
[3]
  T/C: 108 % of control
[19]
  T/C: 101 % of control
dose: 100.0 mg/kg/injection, schedule: Q01DX009 (ip), vehicle: saline with Tween-80
  T/C: 97 % of control

## NNC(=O)Cc1nc2ccccc2[nH]c1=O
[14]
  T/C: 96 % of control
[17]
  T/C: 96 % of control
[18]
  T/C: 90 % of control

## O=C(O)C1CC1.[Ag]
dose: 0.78 mg/kg/injection, schedule: Q01DX009 (ip), vehicle: water
  T/C: 114 % of control
[11]
  T/C: 108 % of control
[15]
  T/C: 108 % of control
[13]
  T/C: 93 % of control
[16]
  T/C: 91 % of control

## CC(C)c1ccc(NC(=O)Nc2cc(Cl)ccc2Cl)cc1
dose: 4.0 mg/kg/injection, schedule: Q01DX009 (ip), vehicle: gum acacia
  T/C: 93 % of control
dose: 8.0 mg/kg/injection, schedule: Q01DX009 (ip), vehicle: gum acacia
  T/C: 90 % of control
dose: 16.0 mg/kg/injection, schedule: Q01DX009 (ip), vehicle: gum acacia
  T/C: 93 % of control

## OC(CCl)CN1CC[N+]2(CC1)CC[N+]1(CCN(CC(O)CCl)CC1)CC2 (stereo not given)
dose: 4.0 mg/kg/injection, schedule: Q03HX024 (ip), vehicle: water
  T/C: 114 % of control
dose: 8.0 mg/kg/injection, schedule: Q03HX016 (ip), vehicle: water
  T/C: 114 % of control
dose: 8.0 mg/kg/injection, schedule: Q03HX024 (ip), vehicle: water
  T/C: 117 % of control
[7]
  T/C: 116 % of control
dose: 16.0 mg/kg/injection, schedule: Q01DX009 (ip), vehicle: water
  T/C: 114 % of control
dose: 16.0 mg/kg/injection, schedule: Q03HX008 (ip), vehicle: water
  T/C: 113 % of control
dose: 16.0 mg/kg/injection, schedule: Q03HX016 (ip), vehicle: water
  T/C: 121 % of control
dose: 16.0 mg/kg/injection, schedule: Q03HX024 (ip), vehicle: water
  T/C: 121 % of control
[8]
  T/C: 111 % of control
dose: 32.0 mg/kg/injection, schedule: Q03HX008 (ip), vehicle: water
  T/C: 123 % of control
dose: 44.0 mg/kg/injection, schedule: Q01DX009 (ip), vehicle: saline
  T/C: 116 % of control
dose: 66.0 mg/kg/injection, schedule: Q01DX009 (ip), vehicle: water
  T/C: 151 % of control and 172 % of control
[6]
  T/C: 150 % of control

## COc1cc2c(cc1O)N=C[C@@H]1CCC(O)N1C2=O (mixture of isomers)
dose: 0.5 mg/kg/injection, schedule: Q01DX009 (ip), vehicle: saline
  T/C: 99 % of control
dose: 1.0 mg/kg/injection, schedule: Q01DX009 (ip), vehicle: saline
  T/C: 99 % of control
dose: 2.0 mg/kg/injection, schedule: Q01DX009 (ip), vehicle: saline
  T/C: 98 % of control
dose: 4.0 mg/kg/injection, schedule: Q01DX009 (ip), vehicle: saline
  T/C: 101 % of control and 119 % of control

## CN1CC[C@]23c4c5ccc(O)c4O[C@H]2C(=O)CC[C@H]3[C@H]1C5
dose: 12.5 mg/kg/injection, schedule: Q01DX005 (iv), vehicle: saline
  T/C: 86 % of control
[7]
  T/C: 94 % of control
dose: 25.0 mg/kg/injection, schedule: Q01DX005 (iv), vehicle: saline
  T/C: 111 % of control
[8]
  T/C: 98 % of control
dose: 50.0 mg/kg/injection, schedule: Q01DX005 (iv), vehicle: saline
  T/C: 95 % of control
[9]
  T/C: 100 % of control

## CN(C)CCCN=Cc1cc(Cl)ccc1O.CN(C)CCCN=Cc1cc(Cl)ccc1O.[Ni+2]
[1]
  T/C: 122 % of control
[2]
  T/C: 116 % of control
[3]
  T/C: 111 % of control

From PubChem BioAssay AID192 (DTP/NCI, 2004)
